Test results reported in US11116739B2, “Fixed dose combinations and formulations comprising ETC1002 and one or more statins and methods of treating or reducing cardiovascular disease” (Esperion Therapeutics, Inc., priority 2015, dated 2021).
Like-named read-outs stand apart in the source and are kept apart here.

Tests used:
[1] = Study 1002-012: effect of steady-state ETC-1002 on single-dose PK of simvastatin, pravastatin, rosuvastatin
Protocol: Serial PK blood samples were collected through the morning of Day −3. Starting on Day 1, all subjects received oral ETC-1002, 240 mg, once daily for 16 days. On the morning of Day 12, in addition to ETC-1002, subjects received a single dose of a statin drug, based on their cohort assignment; serial PK blood samples were collected.

[2] = clinical pharmacokinetics of ETC-1002; format: in vivo, human
Protocol: (§1) The entire clinical program for ETC-1002 (conducted between 2009 and 2015) has included approximately 1000 subjects and patients, with approximately 700 receiving ETC-1002 doses ranging from 2.5 up to 240 mg/day (multiple doses) for up to 12 weeks. There are 15 completed clinical studies (nine Phase 1 and six Phase 2), and integrated data summaries are based on the 6 completed Phase 2 studies.

[3] = test system: mice, rats, and monkeys; test: oral toxicology studies up to 12 months; format: in vivo
Source text: In toxicology studies, evaluations of ETC-1002 in mice, rats, and monkeys in oral studies up to 12 months in duration have been completed. […] Routine clinical laboratory parameters will continue to be monitored carefully in clinical trials.

[4] = test system: major drug transporters; test: in vitro drug transporter inhibition; format: in vitro ADME
[5] = pivotal 12-month monkey study; settings: in vivo, oral, read-out: NOAEL dose
Protocol: (§2) In the pivotal 6-month rat study, the no-observed-adverse-effect level (NOAEL) dose was 30 mg/kg/day in male and female rats and the corresponding area under the curve during 24 hours (AUC0-24) values of the sum of ETC-1002 and ESP15228 were up to 528 μg·hr/mL. In the pivotal 12-month monkey study, the NOAEL dose was 60 mg/kg/day and the corresponding AUC0-24 value of the sum of ETC-1002 and ESP15228 was up to 4478 μg·hr/mL.

[6] = test system: patients; test: integrated analysis of six Phase 2 studies (efficacy); format: in vivo, human
Protocol: as §1

[7] = drug interaction with metformin or Ortho-Novum 1/35; format: in vivo, human
[8] = Study 1002-007: effect of ETC-1002 on the PK of atorvastatin
Protocol: All patients started ETC-1002 at a dose of 60 mg/day, which was up-titrated every 2 weeks to 120 mg/day, then 180 mg/day, then 240 mg/day.

[9] = in-vitro and in-vivo genetic toxicology assays
[10] = test system: QT/QTc; test: thorough QT/QTc (TQT) study (1002-022); format: in vivo, human; settings: ETC-1002 240 mg daily for 9 days
[11] = test system: patients; test: 6 integrated Phase 2 studies (safety, TEAEs, SAEs); format: in vivo, human
Protocol: as §1
The greatest number of patients experiencing at least 1 TEAE among ETC-1002-treated groups occurred in the ETC-1002 40-mg dose group (75.6%); this frequency was similar to the frequency of patients experiencing at least 1 TEAE in the placebo group (74.2%).

[12] = safety pharmacology studies; settings: over the range of exposures intended for clinical studies
[13] = test system: major cytochrome P450 (CYP) enzymes; test: in vitro CYP inhibition/induction studies; format: in vitro ADME; settings: at clinically relevant plasma concentrations
[14] = food-effect/bioequivalence study; design: species or system human; settings: in vivo
[15] = pivotal 6-month rat study; settings: both sexes, in vivo, oral, male and female rats, read-out: no-observed-adverse-effect level (NOAEL) dose
Protocol: as §2

[16] = test system: rodent models of dyslipidemia; test: primary pharmacology in rodent models of dyslipidemia; format: in vivo
Protocol: The primary pharmacology of ETC-1002 was evaluated in several well-characterized and predictive rodent models of dyslipidemia. In these studies, ETC-1002 lowered LDL-C and triglycerides (TGs) and increased high-density lipoprotein cholesterol (HDL-C).

CC(C)(CCCCCC(=O)CCCCCC(C)(C)C(=O)O)C(=O)O [ESP15228]
plasma concentrations and PK parameters ([1]; after 12th daily 240-mg dose of ETC-1002 with single dose simvastatin 20 mg, pravastatin 40 mg or rosuvastatin 10 mg): consistent with those in previous monotherapy studies
Cmax dose proportionality ([2]; human, in vivo): increase in proportion to increasing dose
mean t1/2 ([2]; human, in vivo): 20 to 33 h
Tmax ([2]; oral): 7 h

CC(C)(CCCCCC(O)CCCCCC(C)(C)C(=O)O)C(=O)O [ETC-1002, 8-hydroxy-2,2,14,14 tetramethylpentadecanedioic acid]
central nervous system, respiratory, or cardiovascular liabilities ([3]; oral, up to 12 months, mice, rats, monkeys): No significant central nervous system, respiratory, or cardiovascular liabilities have been identified
target organs in repeat-dose studies ([3]; rats and monkeys, changes reversible following cessation of treatment): liver and kidney
inhibition of major drug transporters [4]: does not appear to inhibit
NOAEL at 12 months [5]: 60 mg/kg/day
LDL-C, placebo-adjusted LS means for percent change from baseline ([6]; 180 mg on top of stable statin therapy): ~22%
LDL-C, placebo-adjusted LS means for percent change from baseline ([6]; ETC-1002 180 mg monotherapy): approximately 32%
non-HDL-C, TC, LDL particle number and apoB ([6]; accompanying reduced LDL-C): corresponding reductions
effect on HDL-C and TGs ([6]; in vivo): generally neutral
drug interaction ([7]; combination of ETC-1002 and Ortho-Novum 1/35 (combined oral contraceptive)): No drug interaction
drug interaction ([7]; combination of ETC-1002 and metformin): No drug interaction
LDL-C lowering ([8]; ETC-1002 in combination with atorvastatin 10 mg vs atorvastatin alone): incremental LDL-C lowering beyond atorvastatin alone
clastogenicity [9]: non-clastogenic
mutagenicity [9]: non-mutagenic
QT interval duration [10]: does not prolong
change in QTc [10]: no significant change
effect on heart rate and PR and QRS intervals [10]: no clinically significant effect
deaths ([11]; ETC-1002 120 mg group, Study 1002-008, Study Day 98, considered possibly related to study drug): One patient died with cause unknown
frequency of TEAEs, SOC infections and infestations ([11]; human, in vivo): 11.6-25%
patients experiencing at least 1 TEAE ([11]; human, in vivo): 75.6%
dose-related trends in the frequency of TEAEs ([11]; in vivo): there did not appear to be any dose-related trends
dose-related trends in the frequency of myalgia ([11]; in vivo): no dose-related trends
muscle-related SAEs ([11]; in vivo): no muscle-related SAEs
other measures of safety including laboratory results ([11]; in vivo): no clinically significant trends
reports of rhabdomyolysis ([11]; in vivo): no reports
safety profile ([11]; in vivo): excellent safety profile
Cmax dose proportionality ([2]; human, in vivo): increase in proportion to increasing dose
Tmax ([2]; human, in vivo, oral, read-out: Tmax): < 4 h
half-life ([2]; human, in vivo, oral, read-out: mean t1/2): 15 to 27 h
systemic exposure, AUCtau,ss, dose proportionality ([2]; up to 120 mg daily, linear from 140 to 220 mg daily doses): slightly more than dose-proportional increase
risks for patients identified in safety pharmacology [12]: did not identify any significant risks
inhibition or induction of major CYP enzymes [13]: neither an inhibitor nor inducer
food effect [14]: can be taken without regard to food
NOAEL at 6 months [15]: 30 mg/kg/day
LDL-C [16]: lowered
high-density lipoprotein cholesterol (HDL-C) [16]: increased
triglycerides (TGs) [16]: lowered

CC(C)c1c(C(=O)Nc2ccccc2O)c(-c2ccccc2)c(-c2ccc(F)cc2)n1CC[C@@H](O)C[C@@H](O)CC(=O)O [ortho-hydroxy atorvastatin]
higher exposure than atorvastatin alone ([8]; 10 mg atorvastatin plus 120 mg ETC-1002 daily vs 10 mg atorvastatin alone): approximately 60%
exposure versus atorvastatin alone ([8]; 10 mg atorvastatin plus ETC-1002 240 mg): higher exposure

CCC(C)(C)C(=O)O[C@H]1C[C@@H](C)C=C2C=C[C@H](C)[C@H](CC[C@@H]3C[C@@H](O)CC(=O)O3)[C@H]21 [simvastatin, reference compound]
exposure (AUC0-inf) increased ([1]; single dose simvastatin 20 mg with steady-state ETC-1002 240 mg vs simvastatin alone, healthy subjects): 29%
